From patent US9023843B2, “Antimicrobial compounds and methods of making and using the same” (Melinta Therapeutics, Inc., priority 2009, dated 2015) come the findings set out here.

The structures appear in SMILES notation.

The subject of this assay is Eschericia coli strain ATCC25922. In words: standard microdilution assay to determine minimum inhibitory concentrations (MICs). To be noted: Escherichia coli, read-out: E. coli ATCC25922 MIC. Type of assay: cell-based. On the procedure: Minimum inhibitory concentrations (MICs) are determined by the microdilution method, typically in a final volume of 100 microliters, according to protocols outlined by The Clinical and Laboratory Standards Institute [CLSI; formerly the National Committee for Clinical Laboratory Standards (NCCLS)]. See CLSI: Methods for dilution antimicrobial susceptibility tests for bacteria that grow aerobically; approved standard-fifth edition. Wayne, Pa.: NCCLS; 2000. The assays can be also be performed in microtiter trays according to conventional methodologies as published by the CLSI. See CLSI. Methods for Dilution Antimicrobial Susceptibility Tests for Bacteria That Grow Aerobically; Approved Standard-Seventh Edition. CLSI Document M7-A7 [ISBN 1-56238-587-9] CLSI, 940 West Valley Road, Suite 1400, Wayne Pa. 19087-1898 USA, 2006).
The compounds of the present invention were tested for antimicrobial activity. The compounds were run against Eschericia coli strain ATCC25922 using a standard microdilution assay to determine minimum inhibitory concentrations (MICs). […] A “N/A” means that data is unavailable. It will be recognized by one skilled in the art that the compounds can be assessed against other bacterial organisms and that the presentation of data for activity against Eschericia coli is illustrative and in no way is intended to limit the scope of the present invention. The compounds of the present invention can be assayed against a range of other microorganisms depending upon the performance activity desired to be gathered. Furthermore, the “+”, “−”, and “N/A” representation and the selection of a cutoff value of 16 micrograms/ml is also illustrative and in no way is intended to limit the scope of the present invention.
For orientation: In broth dilution the organism is exposed to a series of concentrations in liquid medium.

The MIC is the lowest concentration that inhibits growth of the organism. `NCCCNCc1ccc(-n2cc3c(nc2=O)Nc2ccc(CCc4ccc(F)cc4)cc2O3)cc1` [Compound 558]: the MIC is over 16 µg/mL.

As to `NCCCN1CC=C(c2cnc3n(CCCN)c(-c4ccc(F)cc4)cn3c2=O)CC1` [Compound 568], the MIC was over 16 µg/mL.

`NCCCN1CC=C(c2cnc3[nH]c(-c4ccc(F)cc4)cn3c2=O)CC1` [Compound 569]: the MIC was over 16 µg/mL.

On to `NCCCn1c(-c2ccc(F)cc2)cn2c(=O)c(C3=CCNCC3)cnc12` [Compound 570], for which the MIC was over 16 µg/mL.

Turning to `N=C(N)NCCCCCN1CC[C@@H](n2cc3c(nc2=O)Nc2ccccc2O3)C1` [Compound 575], the MIC is over 16 µg/mL.

Take `N=C(N)NCCCCCN1CCCC(n2cc3c(nc2=O)Nc2ccccc2O3)CC1` (centres unmarked) [Compound 576]: the MIC is over 16 µg/mL.

With `O=c1nc2c(cn1C1CCNCC1)Oc1ccccc1N2` [Compound 578], the MIC was over 16 µg/mL.

Take `O=c1nc2c(cn1C1CCNCC1)Oc1ccc(CCc3cccc(F)c3)cc1N2` [Compound 579]: the MIC is over 16 µg/mL.

For `NCCCN1CCC(n2cc3c(nc2=O)Nc2cc(CCc4cccc(F)c4)ccc2O3)CC1` [Compound 592, 3-[1-(3-Amino-propyl)-piperidin-4-yl]-7-[2-(3-fluoro-phenyl)-ethyl]-3H,9H-10-oxa-1,3,9-triaza-anthracen-2-one], the MIC was under 16 µg/mL.

`O=c1nc2c(cn1C1CCCNCC1)Oc1ccccc1N2` (centres unmarked) [Compound 595]: the MIC was over 16 µg/mL.

`NCCCN1CCCC(n2cc3c(nc2=O)Nc2ccccc2O3)CC1` (centres unmarked) [Compound 598]: the MIC is over 16 µg/mL.

As for `N=C(N)NCCCN1CCCC(n2cc3c(nc2=O)Nc2ccccc2O3)CC1` (centres unmarked) [Compound 603], the MIC was under 16 µg/mL.

Take `NCCCCN1CCCC(n2cc3c(nc2=O)Nc2ccccc2O3)CC1` (centres unmarked) [Compound 604]: the MIC was over 16 µg/mL.

On to `COC(=O)c1ccc2c(c1)Nc1nc(=O)n(C3CCN(CCCN)CC3)cc1O2` [Compound 606], for which the MIC was over 16 µg/mL.

Regarding `CN(C)c1ncc(-c2ccc3c(c2)Nc2nc(=O)n(C4CCN(CCCN)CC4)cc2O3)cn1` [Compound 614], the MIC is over 16 µg/mL.

As to `COc1ccc(-c2ccc3c(c2)Nc2nc(=O)n(C4CCN(CCCN)CC4)cc2O3)cc1F` [Compound 615], the MIC is over 16 µg/mL.

As to `CN(C)c1ncc(-c2ccc3c(c2)Nc2nc(=O)n(C4CCN(CCCNC(=N)N)CC4)cc2O3)cn1` [Compound 627], the MIC is under 16 µg/mL.

Turning to `N=C(N)NCCCN1CCC(n2cc3c(nc2=O)Nc2cc(C(=O)NCc4ccc(Br)cc4)ccc2O3)CC1` [Compound 638], the MIC is over 16 µg/mL.

`N=C(N)NCCCN1CCC(n2cc3c(nc2=O)Nc2cc(C(=O)NCC(F)(F)F)ccc2O3)CC1` [Compound 639]: the MIC is over 16 µg/mL.

Consider `N=C(N)NCCCN1CCC(n2cc3c(nc2=O)Nc2cc(C(=O)NCCc4nc5ccccc5[nH]4)ccc2O3)CC1` [Compound 641], for which the MIC was over 16 µg/mL.

On to `N=C(N)NCCCN1CCC(n2cc3c(nc2=O)Nc2cc(C(=O)NCCCN4CCOCC4)ccc2O3)CC1` [Compound 642], for which the MIC was over 16 µg/mL.

Regarding `N=C(N)NCCCN1CCC(n2cc3c(nc2=O)Nc2cc(C(=O)NCC(F)(F)C(F)(F)F)ccc2O3)CC1` [Compound 643], the MIC is over 16 µg/mL.

Turning to `N=C(N)NCCCN1CCC(n2cc3c(nc2=O)Nc2cc(-c4cccc(C(=O)N5CCOCC5)c4)ccc2O3)CC1` [Compound 651], the MIC was over 16 µg/mL.

Consider `N=C(N)NCCCN1CCC(n2cc3c(nc2=O)Nc2cc(C(=O)Nc4ccc(F)cc4F)ccc2O3)CC1` [Compound 656], for which the MIC is over 16 µg/mL.

As to `N=C(N)NCCCN1CCCC(n2cc3c(nc2=O)Nc2cc(C(=O)Nc4ccc(F)cc4F)ccc2O3)CC1` (centres unmarked) [Compound 657], the MIC is over 16 µg/mL.

With `N=C(N)NCCCN1CCCC(n2cc3c(nc2=O)Nc2cc(C(=O)NCCCN4CCOCC4)ccc2O3)CC1` (centres unmarked) [Compound 658], the MIC was over 16 µg/mL.

Consider `N=C(N)NCCCN1CCC(n2cc3c(nc2=O)Nc2cc(C(=O)NCCc4ccc(F)cc4)ccc2O3)CC1` [Compound 659], for which the MIC was over 16 µg/mL.

On to `NCCCN1CCC(n2cc3c(nc2=O)Nc2cc(C(=O)NCCc4ccc(F)cc4)ccc2O3)CC1` [Compound 660], for which the MIC was over 16 µg/mL.

Turning to `N=C(N)NCCCN1CCCC(n2cc3c(nc2=O)Nc2cc(-c4ccc(N5CCOCC5)cc4)ccc2O3)CC1` (centres unmarked) [Compound 664], the MIC was over 16 µg/mL.

For `N=C(N)NCCCN1CCCC(n2cc3c(nc2=O)Nc2cc(-c4ccc(C(F)(F)F)nc4)ccc2O3)CC1` (centres unmarked) [Compound 667], the MIC was over 16 µg/mL.

Take `N=C(N)NCCCN1CCC(n2cc3c(nc2=O)Nc2cc(C(=O)NCCN4CCOCC4)ccc2O3)CC1` [Compound 669]: the MIC was over 16 µg/mL.

Turning to `N=C(N)NCCCNC1CCC(n2cc3c(nc2=O)Nc2cc(-c4ccc(C(F)(F)F)nc4)ccc2O3)CC1` (centres unmarked) [Compound 671], the MIC was over 16 µg/mL.

As for `NCCCNC1CCC(n2cc3c(nc2=O)Nc2cc(-c4ccc(C(F)(F)F)nc4)ccc2O3)CC1` (centres unmarked) [Compound 672], the MIC was over 16 µg/mL.

Take `N=C(N)NCCCN1CCC(n2cc3c(nc2=O)Nc2cc(C(=O)NCCCN4CCCC4=O)ccc2O3)CC1` [Compound 674]: the MIC was over 16 µg/mL.

Regarding `N=C(N)NCCCN1CCC(n2cc3c(nc2=O)Nc2cc(C(=O)Nc4ccccc4OC(F)(F)F)ccc2O3)CC1` [Compound 675], the MIC was over 16 µg/mL.

In the case of `N#Cc1cccc(-c2ccc3c(c2)Nc2nc(=O)n(C4CCCN(CCCNC(=N)N)CC4)cc2O3)c1` (centres unmarked) [Compound 676], the MIC was over 16 µg/mL.

In the case of `Cn1cnc(S(=O)(=O)N2CCC(c3ccc4c(c3)Nc3nc(=O)n(C5CCN(CCCNC(=N)N)CC5)cc3O4)CC2)c1` [Compound 681], the MIC was over 16 µg/mL.

For the molecule `N=C(N)NCCCN1CCC(n2cc3c(nc2=O)Nc2cc(C(=O)Nc4cc(F)c(F)cc4F)ccc2O3)CC1` [Compound 685], the MIC was over 16 µg/mL.

Take `N=C(N)NCCCN1CCC(n2cc3c(nc2=O)Nc2cc(C(=O)Nc4ncn[nH]4)ccc2O3)CC1` [Compound 686]: the MIC was over 16 µg/mL.

For `N=C(N)NCCCN1CCC(n2cc3c(nc2=O)Nc2cc(-c4ccc(C(F)(F)F)nc4)ccc2O3)CC1` [Compound 690], the MIC was over 16 µg/mL.

In the case of `CN(C)CC(=O)N1CCC(c2ccc3c(c2)Nc2nc(=O)n(C4CCN(CCCNC(=N)N)CC4)cc2O3)CC1` [Compound 691], the MIC was over 16 µg/mL.

As for `N=C(N)NCCCN1CCC(n2cc3c(nc2=O)Nc2cc(C4CCN(S(=O)(=O)C5CC5)CC4)ccc2O3)CC1` [Compound 694], the MIC was over 16 µg/mL.

`N=C(N)NCCCN1CCCC(n2cc3c(nc2=O)Nc2cc(C(=O)NCCc4cnc[nH]4)ccc2O3)CC1` (centres unmarked) [Compound 707]: the MIC was under 16 µg/mL.

Take `N=C(N)NCCCN1CCCC(n2cc3c(nc2=O)Nc2cc(C(=O)NCCC4CCNCC4)ccc2O3)CC1` (centres unmarked) [Compound 708]: the MIC was under 16 µg/mL.

For `NCCCN1CCC(n2cc3c(nc2=O)Nc2cc(C4CCN(C(=O)CN)CC4)ccc2O3)CC1` [Compound 714], the MIC was over 16 µg/mL.

For `N=C(N)NCCCN1CCC(n2cc3c(nc2=O)Nc2cc(C4CCN(C(=O)CNC(=N)N)CC4)ccc2O3)CC1` [Compound 715], the MIC was under 16 µg/mL.

Consider `N=C(N)NCCCN1CCC(n2cc3c(nc2=O)Nc2cc(C4CCN(C(=O)C(N)CO)CC4)ccc2O3)CC1` (centres unmarked) [Compound 718], for which the MIC is over 16 µg/mL.

For `N=C(N)NCCCN1CCC(n2cc3c(nc2=O)Nc2cc(C4CCN(C(=O)Nc5ccc(C(F)(F)F)cc5)CC4)ccc2O3)CC1` [Compound 729], the MIC was under 16 µg/mL.

For the molecule `N=C(N)NCCCN1CCC(n2cc3c(nc2=O)Nc2cc(C4CCN(C(=O)Nc5ccc(F)c(Cl)c5)CC4)ccc2O3)CC1` [Compound 730], the MIC was over 16 µg/mL.

As to `NCCCNC1CCC(n2cc3c(nc2=O)Nc2cc(C(=O)NCCCN4CCNCC4)ccc2O3)CC1` (centres unmarked) [Compound 731], the MIC is under 16 µg/mL.

As to `N=C(N)NCCCNC1CCC(n2cc3c(nc2=O)Nc2cc(C(=O)NCCCN4CCNCC4)ccc2O3)CC1` (centres unmarked) [Compound 732], the MIC is under 16 µg/mL.

Turning to `N=C(N)NCCCN1CCC(n2cc3c(nc2=O)Nc2cc(C4CCN(C(=O)Nc5ccc(F)cc5)CC4)ccc2O3)CC1` [Compound 733], the MIC is over 16 µg/mL.

As to `N=C(N)NCCCN1CCC(n2cc3c(nc2=O)Nc2cc(C4CCN(S(=O)(=O)c5cccnc5)CC4)ccc2O3)CC1` [Compound 738], the MIC was over 16 µg/mL.

`NCCCNC1CCC(n2cc3c(nc2=O)Nc2cc(C(=O)NCCN4CCNCC4)ccc2O3)CC1` (centres unmarked) [Compound 740]: the MIC is under 16 µg/mL.

With `N=C(N)NCCCNC1CCC(n2cc3c(nc2=O)Nc2cc(C(=O)NCCN4CCNCC4)ccc2O3)CC1` (centres unmarked) [Compound 741], the MIC was under 16 µg/mL.

As to `NCCCN1CCC(n2cc3c(nc2=O)Nc2cc(C4CCN(C(=O)CN(Cc5ccc(F)c(F)c5)C5CCNCC5)CC4)ccc2O3)CC1` [Compound 748], the MIC was over 16 µg/mL.

`N=C(N)NCCCN1CCC(n2cc3c(nc2=O)Nc2cc(C4CCN(C(=O)CN(Cc5ccc(F)c(F)c5)C5CCNCC5)CC4)ccc2O3)CC1` [Compound 749]: the MIC is under 16 µg/mL.

`Cn1cnc(S(=O)(=O)N2CCC(c3ccc4c(c3)Nc3nc(=O)n(C5CCC(NCCCNC(=N)N)CC5)cc3O4)CC2)c1` (centres unmarked) [Compound 750]: the MIC was over 16 µg/mL.

For the molecule `CN(C)CC(=O)N1CCC(c2ccc3c(c2)Nc2nc(=O)n(C4CCC(NCCCNC(=N)N)CC4)cc2O3)CC1` (centres unmarked) [Compound 751], the MIC is under 16 µg/mL.
